Experimental data published in the supplement of paper PMC10307832.

How the values were obtained:
Test in all cases: relative viability (nuclei count vs DMSO), 5 days (fraction); higher = more cells survive
[1] = compound: Cn1cc(-c2cnn3c(N)c(Br)c([C@@H]4CCCNC4)nc23)cn1 + Nc1ncn([C@H]2C[C@H](O)[C@@H](CO)O2)c(=O)n1 [Decitabine] (partner 2 µM)
Procedure, shortened: (§1)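 Dosing by pin tool came one day after lung cancer cell lines were seeded in 1536-well plates, using either one drug or a fixed anchor-drug dose plus five library-drug doses (not always all listed) in √10 steps. After 5 days, nuclei were counted on 4× images. Relative viability is treated-well nuclei count divided by vehicle-well nuclei count, and values are medians of duplicate plates.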

[2] = compound: Cn1cc(-c2cnn3c(N)c(Br)c([C@@H]4CCCNC4)nc23)cn1 + C[C@]1(O)C[C@@H](c2nc(-c3ccc4ccc(-c5ccccc5)nc4c3)c3c(N)nccn32)C1 [Linsitinib] (partner 1 µM)
Procedure, shortened: as §1

[3] = compound: Cn1cc(-c2cnn3c(N)c(Br)c([C@@H]4CCCNC4)nc23)cn1 + Cc1nc(NC(=O)N2CCC[C@H]2C(N)=O)sc1-c1ccnc(C(C)(C)C(F)(F)F)c1 [Alpelisib] (partner 2 µM)
Procedure, shortened: as §1

[4] = compound: Cn1cc(-c2cnn3c(N)c(Br)c([C@@H]4CCCNC4)nc23)cn1 + CS(=O)(=O)N1CCN(Cc2cc3nc(-c4cccc5[nH]ncc45)nc(N4CCOCC4)c3s2)CC1 [Pictilisib] (partner 1 µM)
Procedure, shortened: as §1

Cell Line	relative viability ([1]; first compound 0.05 µM)	relative viability ([1]; first compound 0.1581 µM)	relative viability ([1]; first compound 0.5 µM)	relative viability ([1]; first compound 1.581 µM)	relative viability ([1]; first compound 5 µM)	relative viability ([2]; first compound 0.05 µM)	relative viability ([2]; first compound 0.1581 µM)	relative viability ([2]; first compound 0.5 µM)	relative viability ([2]; first compound 1.581 µM)	relative viability ([2]; first compound 5 µM)	relative viability ([3]; first compound 0.05 µM)	relative viability ([3]; first compound 0.1581 µM)	relative viability ([3]; first compound 0.5 µM)	relative viability ([3]; first compound 1.581 µM)	relative viability ([3]; first compound 5 µM)	relative viability ([4]; first compound 0.05 µM)	relative viability ([4]; first compound 0.1581 µM)	relative viability ([4]; first compound 0.5 µM)	relative viability ([4]; first compound 1.581 µM)	relative viability ([4]; first compound 5 µM)
HARA	0.691	0.497	0.624	0.584	0.41	1.11	1.03	1.23	0.761	0.402	0.875	0.701	0.792	0.806	0.619	0.463	0.345	0.372	0.438	0.207
NCI-H2126	0.544	0.581	0.563	0.526	0.632	0.842	0.723	0.714	0.666	0.686	0.824	0.788	0.768	0.729	0.757	0.462	0.519	0.512	0.52	0.524
LXF-289	0.368	0.41	0.401	0.382	0.485	0.976	1.07	1.07	0.903	1.04	1.08	1.14	1.01	1.01	1.06	0.827	0.907	0.896	0.712	0.825
NCI-H460	0.523	0.546	0.31	0.356	0.19	0.611	0.68	0.728	0.217	0.183	0.59	0.459	0.509	0.155	0.0851	0.363	0.394	0.357	0.314	0.125
NCI-H1395	0.761	0.554	0.63	0.501	0.378	1.19	0.679	1.11	0.616	0.431	1.18	0.685	0.874	0.66	0.435	0.575	0.671	0.562	0.51	0.585
NCI-H2009	0.384	0.369	0.377	0.37	0.387	1.14	1.31	1.22	1.12	1.09	1.17	1.25	1.09	1.09	0.849	0.712	0.873	0.714	0.517	0.552
